SMILES strings stand for the structures. Where a name gives a salt, the structure may show the parent alone. Where only a bound is given, the exact number is not on record here.

The target in one assay is T1, Integrin αvβ3 (Homo sapiens, UniProt P05106+P06756).
T1 construct: purchased Chemicon International, Inc
In words: Integrin αvβ3 binding affinity test. The note with it: inhibition of biotinylated vitronectin binding to immobilized αvβ3; read-out: IC50 value αv β3. The protocol:
(§1) […] αvβ3 (Chemicon International, Inc.) was immobilized on each well of a 96-well plate (Corning Inc.). Each well was blocked with a 1% Block Ace (DS Pharma Biomedical Co., Ltd) solution and then washed with T-PBS (PBS containing 0.05% Tween 20). Evaluation compound solutions having a 2-fold concentration (10 concentrations of 3.16-fold dilutions from 0.3 μmol/L, buffer (20 mM Tris-HCl pH 7.5, 150 mM NaCl, 1 mM CaCl2, 1 mM MgCl2, and 1 mM MnCl2)) and a 4 μg/mL biotinylated vitronectin solution (vitronectin (Upstate Biotechnology Inc.) was labeled with EZ-Link Sulfo-NHS-Biotinylation Kit (Pierce/Thermo Fisher Scientific Inc.) and then concentration-adjusted) were each added at 50 μL/well, and the plate was shaken at room temperature for 2 hours. After washing with T-PBS, a 0.2 μg/mL avidin peroxidase (Pierce/Thermo Fisher Scientific Inc.) solution was added thereto, and the plate was shaken at room temperature for 1 hour. After washing with T-PBS, color was developed by an o-phenylenediamine (Sigma-Aldrich Inc.) solution (the reaction was terminated by the addition of 4 mol/L sulfuric acid), and the absorbance was measured (490 nm, Reference: 595 nm). The IC50 value was calculated using XLfit 3.0 (ID Business Solutions Ltd.). RGDfV (Bachem AG) was measured in duplicate as a QC sample for each plate.

The next assay deals with T2, Integrin αvβ5 (Homo sapiens, UniProt P06756+P18084).
T2 construct: purchased Chemicon International, Inc
T2 sequence (P06756 31-889 limits assumed): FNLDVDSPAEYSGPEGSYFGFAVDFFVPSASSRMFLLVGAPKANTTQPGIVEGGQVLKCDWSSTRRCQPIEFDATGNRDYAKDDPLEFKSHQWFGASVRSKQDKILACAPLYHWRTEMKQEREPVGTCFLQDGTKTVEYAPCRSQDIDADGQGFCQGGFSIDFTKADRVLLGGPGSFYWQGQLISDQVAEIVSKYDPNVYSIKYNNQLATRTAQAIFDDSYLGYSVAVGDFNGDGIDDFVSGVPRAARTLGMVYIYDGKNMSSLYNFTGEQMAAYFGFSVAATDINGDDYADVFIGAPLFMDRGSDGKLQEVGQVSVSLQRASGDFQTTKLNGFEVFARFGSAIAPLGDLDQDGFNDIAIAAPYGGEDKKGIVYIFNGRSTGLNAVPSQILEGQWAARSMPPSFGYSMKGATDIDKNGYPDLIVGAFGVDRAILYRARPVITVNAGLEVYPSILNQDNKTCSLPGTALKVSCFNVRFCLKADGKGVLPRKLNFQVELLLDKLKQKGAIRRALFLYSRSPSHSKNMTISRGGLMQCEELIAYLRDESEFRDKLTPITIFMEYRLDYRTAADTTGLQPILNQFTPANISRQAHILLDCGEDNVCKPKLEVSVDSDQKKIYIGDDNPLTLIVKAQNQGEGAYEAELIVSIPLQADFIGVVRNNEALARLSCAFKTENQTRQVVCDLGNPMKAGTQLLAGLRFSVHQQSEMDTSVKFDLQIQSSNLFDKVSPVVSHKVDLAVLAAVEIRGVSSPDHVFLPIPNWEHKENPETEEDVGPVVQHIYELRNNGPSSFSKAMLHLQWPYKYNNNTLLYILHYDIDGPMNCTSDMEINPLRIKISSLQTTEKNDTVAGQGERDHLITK
T2 sequence (P06756 891-1048 partner limits assumed): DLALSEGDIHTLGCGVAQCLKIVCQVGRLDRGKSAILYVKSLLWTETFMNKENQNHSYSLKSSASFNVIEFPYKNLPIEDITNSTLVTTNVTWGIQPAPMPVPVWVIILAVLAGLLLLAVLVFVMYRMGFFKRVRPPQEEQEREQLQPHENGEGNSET
T2 sequence (P18084 24-799): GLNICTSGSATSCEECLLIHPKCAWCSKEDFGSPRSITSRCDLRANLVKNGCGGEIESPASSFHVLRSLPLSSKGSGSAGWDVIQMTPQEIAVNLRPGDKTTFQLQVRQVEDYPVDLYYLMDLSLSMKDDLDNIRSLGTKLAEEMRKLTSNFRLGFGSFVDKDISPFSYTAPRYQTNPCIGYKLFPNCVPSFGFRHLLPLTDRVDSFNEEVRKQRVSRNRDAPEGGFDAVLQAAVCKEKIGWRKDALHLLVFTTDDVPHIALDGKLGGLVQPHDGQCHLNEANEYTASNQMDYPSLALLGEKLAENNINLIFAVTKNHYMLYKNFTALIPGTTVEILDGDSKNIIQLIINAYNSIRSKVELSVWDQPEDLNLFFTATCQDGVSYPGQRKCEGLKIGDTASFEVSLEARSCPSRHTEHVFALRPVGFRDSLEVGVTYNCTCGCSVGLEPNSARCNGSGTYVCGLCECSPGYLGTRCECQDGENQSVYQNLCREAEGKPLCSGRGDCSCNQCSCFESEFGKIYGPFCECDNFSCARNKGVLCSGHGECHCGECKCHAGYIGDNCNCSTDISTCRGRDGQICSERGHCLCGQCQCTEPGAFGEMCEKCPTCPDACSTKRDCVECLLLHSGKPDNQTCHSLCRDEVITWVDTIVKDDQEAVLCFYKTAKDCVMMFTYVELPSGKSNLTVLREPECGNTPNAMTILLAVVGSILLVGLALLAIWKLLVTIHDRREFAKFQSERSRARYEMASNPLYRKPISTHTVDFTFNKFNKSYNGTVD
Briefly: Integrin αvβ5 binding affinity test. The conditions noted are these: inhibition of biotinylated vitronectin binding to immobilized αvβ5; read-out: IC50 value αvβ5. The procedure: as §1, with “αvβ5” for “αvβ3”, “PBST (10 mM Na2HPO4 pH 7.5, 150 mM NaCl, and 0.01%” for “T-PBS (PBS containing 0.05%”, “PBST,” for “T-PBS,”

T1 sequence (P06756 31-889 limits assumed): as the sequence (P06756 31-889 limits assumed) above
T1 sequence (P06756 891-1048 partner limits assumed): as the sequence (P06756 891-1048 partner limits assumed) above
T1 sequence (P05106 27-788): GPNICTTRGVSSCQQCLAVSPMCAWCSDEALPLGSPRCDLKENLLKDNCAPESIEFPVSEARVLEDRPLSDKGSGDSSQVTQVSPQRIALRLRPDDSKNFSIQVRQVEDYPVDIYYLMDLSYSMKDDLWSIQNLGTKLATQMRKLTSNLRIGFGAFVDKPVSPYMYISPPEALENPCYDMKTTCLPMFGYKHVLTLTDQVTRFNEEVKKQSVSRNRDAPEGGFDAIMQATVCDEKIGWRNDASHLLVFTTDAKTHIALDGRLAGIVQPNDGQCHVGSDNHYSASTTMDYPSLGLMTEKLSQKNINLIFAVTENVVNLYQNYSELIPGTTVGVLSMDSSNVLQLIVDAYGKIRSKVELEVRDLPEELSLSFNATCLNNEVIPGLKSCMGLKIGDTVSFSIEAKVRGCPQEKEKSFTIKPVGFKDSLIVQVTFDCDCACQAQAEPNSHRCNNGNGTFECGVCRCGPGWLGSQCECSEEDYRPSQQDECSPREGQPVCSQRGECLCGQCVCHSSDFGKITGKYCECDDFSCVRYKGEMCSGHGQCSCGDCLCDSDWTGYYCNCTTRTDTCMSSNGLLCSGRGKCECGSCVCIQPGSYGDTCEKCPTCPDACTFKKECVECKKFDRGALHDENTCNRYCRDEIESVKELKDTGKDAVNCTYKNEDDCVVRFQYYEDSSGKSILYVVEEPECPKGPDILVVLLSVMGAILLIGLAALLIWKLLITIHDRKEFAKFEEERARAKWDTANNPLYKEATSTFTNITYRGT

As to `Cc1cc(OCCCC(=O)NCCNC(=O)[C@H](CS(=O)(=O)O)NC(=O)CN2CCN(CC(=O)O)CCN(CC(=O)O)CCN(CC(=O)O)CC2)cc(C)c1S(=O)(=O)N[C@@H](CNC(=O)c1ccc(CCc2cccc(N)n2)cc1)C(=O)O` [Compound M2, 2,2′,2″-(10-(2-(((R)-1-((2-(4-(4-(N—((S)-2-(4-(2-(6-aminopyridin-2-yl)ethyl)benzamido)-1-carboxyethyl)sulfamoyl)-3,5-dimethylphenoxy)butanamido)ethyl)amino)-1-oxo-3-sulfopropan-2-yl)amino)-2-oxoethyl)-1,4,7,10-tetraazacyclododecane-1,4,7-triyl)triacetic acid], the IC50 on Integrin αvβ3 and at Integrin αvβ5 was less than 1 nM each time.

`Cc1cc(OCCCC(=O)NCCNC(=O)[C@H](CS(=O)(=O)O)NC(=O)[C@H](CS(=O)(=O)O)NC(=O)CN2CCN(CC(=O)O)CCN(CC(=O)O)CCN(CC(=O)O)CC2)cc(C)c1S(=O)(=O)N[C@@H](CNC(=O)c1ccc(CCc2ccc3c(n2)NCCC3)cc1)C(=O)O` [Compound A8, 2,2′,2″-(10-((4R,7R)-16-(4-(N—((S)-1-carboxy-2-(4-(2-(5,6,7,8-tetrahydro-1,8-naphthyridin-2-yl)ethyl)benzamido)ethyl)sulfamoyl)-3,5-dimethylphenoxy)-2,5,8,13-tetraoxo-4,7-bis(sulfomethyl)-3,6,9,12-tetraazahexadecyl)-1,4,7,10-tetraazacyclododecane-1,4,7-triyl)triacetic acid]: the IC50 on Integrin αvβ3 and on Integrin αvβ5 was less than 1 nM in each case.

Regarding `Cc1cc(OCCCC(=O)NCCNC(=O)[C@H](CS(=O)(=O)O)NC(=O)[C@H](CS(=O)(=O)O)NC(=S)Nc2ccc(C[C@@H](CN(CC(=O)O)CC(C)N(CC(=O)O)CC(=O)O)N(CC(=O)O)CC(=O)O)cc2)cc(C)c1S(=O)(=O)N[C@@H](CNC(=O)c1ccc(CCc2ccc3c(n2)NCCC3)cc1)C(=O)O` (stereo partly drawn) [Compound R3, 2,2′-((1-(((S)-2-(bis(carboxymethyl)amino)-3-(4-(3-((R)-1-(((R)-1-((2-(4-(4-(N—((S)-1-carboxy-2-(4-(2-(5,6,7,8-tetrahydro-1,8-naphthyridin-2-yl)ethyl)benzamido)ethyl)sulfamoyl)-3,5-dimethylphenoxy)butanamido)ethyl)amino)-1-oxo-3-sulfopropan-2-yl)amino)-1-oxo-3-sulfopropan-2-yl)thioureido)phenyl)propyl) (carboxymethyl)amino)propan-2-yl)azanediyl)diacetic acid], the half-inhibitory concentration (IC50) at Integrin αvβ3 and on Integrin αvβ5 was less than 1 nM throughout.

On to `O=C(O)CN1CCN(CC(=O)O)CCN(CC(=O)N[C@@H](CS(=O)(=O)O)C(=O)N[C@@H](CS(=O)(=O)O)C(=O)NCCNC(=O)CCCOc2ccc(S(=O)(=O)N[C@@H](CNC(=O)c3ccc(CCc4ccc5c(n4)NCCC5)cc3)C(=O)O)cc2)CCN(CC(=O)O)CC1` [Compound Y13, 2,2′,2″-(10-((4R,7R)-16-(4-(N—((S)-1-carboxy-2-(4-(2-(5,6,7,8-tetrahydro-1,8-naphthyridin-2-yl)ethyl)benzamido)ethyl)sulfamoyl)phenoxy)-2,5,8,13-tetraoxo-4,7-bis(sulfomethyl)-3,6,9,12-tetraazahexadecyl)-1,4,7,10-tetraazacyclododecane-1,4,7-triyl)triacetic acid hexasodium salt], for which the IC50 on Integrin αvβ3 and on Integrin αvβ5 was less than 1 nM each time.

With `Cc1cc(OCCCC(=O)NCCNC(=O)[C@H](CS(=O)(=O)O)NC(=O)CC[C@H](C(=O)O)N2CCN(CC(=O)O)CCN(CC(=O)O)CC2)cc(C)c1S(=O)(=O)N[C@@H](CNC(=O)CCCCc1ccc2c(n1)NCCC2)C(=O)O` [Aa7, 2,2′-(7-((R)-1-carboxy-4-(((R)-1-((2-(4-(4-(N—((S)-1-carboxy-2-(5-(5,6,7,8-tetrahydro-1,8-naphthyridin-2-yl)pentanamido)ethyl)sulfamoyl)-3,5-dimethylphenoxy)butanamido)ethyl)amino)-1-oxo-3-sulfopropan-2-yl)amino)-4-oxobutyl)-1,4,7-triazonane-1,4-diyl)diacetic acid], the IC50 at Integrin αvβ3 and on Integrin αvβ5 was less than 1 nM in each case.

For the molecule `Cc1cc(OCCCC(=O)NCCNC(=O)[C@H](CS(=O)(=O)O)NC(=O)[C@H](CS(=O)(=O)O)NC(=O)CN2CCN(CC(=O)O)CCN(CC(=O)O)CCN(CC(=O)O)CC2)cc(C)c1S(=O)(=O)N[C@@H](CNC(=O)CCCCc1ccc2c(n1)NCCC2)C(=O)O` [Compound O10, 2,2′,2′-(10-((4R,7R)-16-(4-(N—((S)-1-carboxy-2-(5-(5,6,7,8-tetrahydro-1,8-naphthyridin-2-yl)pentanamido)ethyl)sulfamoyl)-3,5-dimethylphenoxy)-2,5,8,13-tetraoxo-4,7-bis(sulfomethyl)-3,6,9,12-tetraazahexadecyl)-1,4,7,10-tetraazacyclododecane-1,4,7-triyl)triacetic acid], the IC50 on Integrin αvβ3 and at Integrin αvβ5 was less than 1 nM throughout.

Regarding `Cc1cc(OCCCC(=O)NCCNC(=O)COCCOCCNC(=O)COCCOCCNC(=O)CN2CCN(CC(=O)O)CCN(CC(=O)O)CCN(CC(=O)O)CC2)cc(C)c1S(=O)(=O)N[C@@H](CNC(=O)c1ccc(CCc2ccc3c(n2)NCCC3)cc1)C(=O)O` [Compound F3, (S)-2,2′,2″-(10-(28-(4-(N-(1-carboxy-2-(4-(2-(5,6,7,8-tetrahydro-1,8-naphthyridin-2-yl)ethyl)benzamido)ethyl)sulfamoyl)-3,5-dimethylphenoxy)-2,11,20,25-tetraoxo-6,9,15,18-tetraoxa-3,12,21,24-tetraazaoctacosyl)-1,4,7,10-tetraazacyclododecane-1,4,7-triyl)triacetic acid], the IC50 on Integrin αvβ3 and on Integrin αvβ5 was less than 1 nM in each case.

As to `Cc1cc(OCCCC(=O)NCCNC(=O)[C@H](CS(=O)(=O)O)NC(=O)[C@H](CS(=O)(=O)O)NC(=O)CN2CCN(CC(=O)O)CCN(CC(=O)O)CCN(CC(=O)O)CC2)cc(C)c1S(=O)(=O)N[C@@H](CNC(=O)c1ccc(CCc2ccc3c(n2)NCCC3)s1)C(=O)O` [Compound X9, 2,2′,2″-(10-((4R,7R)-16-(4-(N—((S)-1-carboxy-2-(5-(2-(5,6,7,8-tetrahydro-1,8-naphthyridin-2-yl)ethyl)thiophene-2-carboxamido)ethyl)sulfamoyl)-3,5-dimethylphenoxy)-2,5,8,13-tetraoxo-4,7-bis(sulfomethyl)-3,6,9,12-tetraazahexadecyl)-1,4,7,10-tetraazacyclododecane-1,4,7-triyl)triacetic acid], the results for the IC50 at Integrin αvβ3 and on Integrin αvβ5 were less than 1 nM and 1 to 10 nM, respectively.

In the case of `Cc1cc(OCCCC(=O)NCCNC(=O)[C@H](CS(=O)(=O)O)NC(=O)[C@H](CS(=O)(=O)O)NC(=O)CN2CCN(CC(=O)O)CCN(CC(=O)O)CCN(CC(=O)O)CC2)cc(C)c1S(=O)(=O)N[C@@H](CNC(=O)c1ccc(CCc2cccc(N)n2)cc1)C(=O)O` [Compound N3, 2,2′,2″-(10-((4R,7R)-16-(4-(N—((S)-2-(4-(2-(6-aminopyridin-2-yl)ethyl)benzamido)-1-carboxyethyl)sulfamoyl)-3,5-dimethylphenoxy)-2,5,8,13-tetraoxo-4,7-bis(sulfomethyl)-3,6,9,12-tetraazahexadecyl)-1,4,7,10-tetraazacyclododecane-1,4,7-triyl)triacetic acid], the IC50 on Integrin αvβ3 and at Integrin αvβ5 was less than 1 nM each time.

`Cc1cc(OCCCC(=O)NCCNC(=O)[C@H](CS(=O)(=O)O)NC(=O)CCC(C(=O)O)N2CCCN3CCN(CCCN(CC(=O)O)CC3)CC2)cc(C)c1S(=O)(=O)N[C@@H](CNC(=O)CCCCc1ccc2c(n1)NCCC2)C(=O)O` (single isomer, unassigned) [Ab9-b]: the IC50 on Integrin αvβ3 and at Integrin αvβ5 was less than 1 nM each time.

`Cc1cc(OCCCC(=O)NCCNC(=O)CN2CCN(CC(=O)O)CCN(CC(=O)O)CCN(CC(=O)O)CC2)cc(C)c1S(=O)(=O)N[C@@H](CNC(=O)c1ccc(CCc2ccc3c(n2)NCCC3)cc1)C(=O)O` [Compound S2, (S)-2,2′,2″-(10-(2-((2-(4-(4-(N-(1-carboxy-2-(4-(2-(5,6,7,8-tetrahydro-1,8-naphthyridin-2-yl)ethyl)benzamido)ethyl)sulfamoyl)-3,5-dimethylphenoxy)butanamido)ethyl)amino)-2-oxoethyl)-1,4,7,10-tetraazacyclododecane-1,4,7-triyl)triacetic acid]: the IC50 at Integrin αvβ3 and at Integrin αvβ5 was less than 1 nM in each case.
